Measured values as given in paper PMC7531004, “Discovery of gramicidin A analogues with altered activities by multidimensional screening of a one-bead-one-compound library” (Nature Communications, 2020).
Where a SMILES comes first, the peptide text is derived from it. [ ]: non-standard residue; d: D form. The star is where a group is joined. NHCH2CH2OH = OCCN*; For = O=C*

Legend:
[1] = cell viability/%
How it was run: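 Peptide stocks diluted 250× in growth medium; P388 cells 1 × 10^4 cells/mL final; 37 °C, 5% CO2, 92 h. WST-1 + 1-methoxy PMS, 4 h, A415. Output: % viability.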

[2] = tested on: Streptococcus pyogenes SSI-9; assay: Antibacterial activity assay of bead-derived peptides (three concentrations); type: cell-based; design: key: +++: inhibition by the 640-fold diluted peptide solution; ++: inhibition by the 160-fold diluted solution; +: inhibition by the 40-fold diluted solution; -: no inhibition; settings: S. pyogenes, bead-derived peptide solution, three concentrations
How it was run: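 First, each peptide stock was diluted 4- and 16-fold in DMSO; next, the three solutions were mixed with S. pyogenes SSI-9 suspension (2 × 10^5 CFU) in cation-adjusted Mueller Hinton Broth plus 5% laked horse blood; finally, plates stood 18 h at 37 °C before checking for grown-cell precipitation.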

[3] = H+/Na+ transport assay of bead-derived peptides (one-point); type: biochemical; design: key: relative activity; mean of two control wells = 1.00; settings: bead-derived peptide solution, EYPC/EYPG LUVs;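 note: relative to parent gramicidin A activity set to 1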
How it was run: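 H+/Na+ transport is monitored through pyranine fluorescence in freshly extruded LUVs after a 30-min room-temperature vortex with each library peptide at a single concentration. Signals are normalized to detergent (Triton X-100) and untreated controls.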

| SMILES | viability [1] | antibacterial activity [2] | H+/Na+ transport activity normalized against the value of 1 (1.00) [3] |
| --- | --- | --- | --- |
| CC(C)C[C@@H](NC(=O)[C@H](C)NC(=O)[C@H](NC(=O)[C@H](C)NC(=O)CNC(=O)[C@@H](NC=O)C(C)C)C(C)C)C(=O)N[C@H](C(=O)N[C@H](CC(C)C)C(=O)N[C@@H](Cc1c[nH]c2ccccc12)C(=O)N[C@H](CC(C)C)C(=O)N[C@@H](Cc1c[nH]c2ccccc12)C(=O)N[C@@H](C(=O)N[C@@H](Cc1c[nH]c2ccccc12)C(=O)N[C@@H](C(=O)N[C@@H](Cc1c[nH]c2ccccc12)C(=O)NCCO)C(C)C)[C@H](C)O)C(C)C [compound 2117] (For-VGA[dV]A[dL]V[dL]W[dL]W[dT]W[dV]W-NHCH2CH2OH) | 100% | + | 1.15 |
| CNC(=O)C[C@@H](NC(=O)[C@@H](NC(=O)[C@H](NC(=O)[C@H](C)NC(=O)[C@@H](CC(C)C)NC(=O)[C@H](C)NC(=O)CNC(=O)[C@@H](NC=O)C(C)C)C(C)C)C(C)C)C(=O)N[C@@H](Cc1c[nH]c2ccccc12)C(=O)N[C@@H](C(=O)N[C@@H](Cc1c[nH]c2ccccc12)C(=O)N[C@H](CC(C)C)C(=O)N[C@@H](Cc1c[nH]c2ccccc12)C(=O)N[C@H](CC(C)C)C(=O)N[C@@H](Cc1c[nH]c2ccccc12)C(=O)NCCO)C(C)C [compound 2118] (For-VGA[dL]A[dV]V[dD](NHMe)W[dV]W[dL]W[dL]W-NHCH2CH2OH) | 100% | - | 1.26 |
| CC(C)C[C@@H](NC(=O)[C@H](C)NC(=O)[C@H](NC(=O)[C@H](C)NC(=O)CNC(=O)[C@@H](NC=O)C(C)C)[C@H](C)O)C(=O)N[C@H](C(=O)N[C@H](CC(C)C)C(=O)N[C@@H](Cc1c[nH]c2ccccc12)C(=O)N[C@@H](C(=O)N[C@@H](Cc1c[nH]c2ccccc12)C(=O)N[C@@H](C(=O)N[C@@H](Cc1c[nH]c2ccccc12)C(=O)N[C@@H](C(=O)N[C@@H](Cc1c[nH]c2ccccc12)C(=O)NCCO)C(C)C)C(C)C)[C@H](C)O)C(C)C [compound 2139] (For-VGA[dT]A[dL]V[dL]W[dT]W[dV]W[dV]W-NHCH2CH2OH) | 100% | - | 1.05 |
| CC(C)C[C@@H](NC(=O)[C@H](C)NC(=O)CNC(=O)[C@@H](NC=O)C(C)C)C(=O)N[C@@H](C)C(=O)N[C@@H](C(=O)N[C@H](C(=O)N[C@@H](C(=O)N[C@@H](Cc1c[nH]c2ccccc12)C(=O)N[C@@H](C(=O)N[C@@H](Cc1c[nH]c2ccccc12)C(=O)N[C@H](CC(C)C)C(=O)N[C@@H](Cc1c[nH]c2ccccc12)C(=O)N[C@@H](C(=O)N[C@@H](Cc1c[nH]c2ccccc12)C(=O)NCCO)C(C)C)C(C)C)[C@H](C)O)C(C)C)C(C)C [compound 2154] (For-VGA[dL]A[dV]V[dT]W[dV]W[dL]W[dV]W-NHCH2CH2OH) | 100% | - | 1.09 |
| CNC(=O)C[C@@H](NC(=O)[C@@H](NC(=O)[C@H](NC(=O)[C@H](C)NC(=O)[C@@H](CC(C)C)NC(=O)[C@H](C)NC(=O)CNC(=O)[C@@H](NC=O)C(C)C)C(C)C)C(C)C)C(=O)N[C@@H](Cc1c[nH]c2ccccc12)C(=O)N[C@H](CC(C)C)C(=O)N[C@@H](Cc1c[nH]c2ccccc12)C(=O)N[C@@H](C(=O)N[C@@H](Cc1c[nH]c2ccccc12)C(=O)N[C@@H](C(=O)N[C@@H](Cc1c[nH]c2ccccc12)C(=O)NCCO)C(C)C)C(C)C [compound 2195] (For-VGA[dL]A[dV]V[dD](NHMe)W[dL]W[dV]W[dV]W-NHCH2CH2OH) | 100% | - | 1.34 |
| CC(C)C[C@@H](NC(=O)[C@H](C)NC(=O)CNC(=O)[C@@H](NC=O)C(C)C)C(=O)N[C@@H](C)C(=O)N[C@@H](C(=O)N[C@H](C(=O)N[C@@H](C(=O)N[C@@H](Cc1c[nH]c2ccccc12)C(=O)N[C@@H](C(=O)N[C@@H](Cc1c[nH]c2ccccc12)C(=O)N[C@@H](C(=O)N[C@@H](Cc1c[nH]c2ccccc12)C(=O)N[C@H](CC(C)C)C(=O)N[C@@H](Cc1c[nH]c2ccccc12)C(=O)NCCO)C(C)C)[C@H](C)O)C(C)C)C(C)C)C(C)C [compound 2207] (For-VGA[dL]A[dV]V[dV]W[dT]W[dV]W[dL]W-NHCH2CH2OH) | 100% | - | 1.18 |
| CC(C)C[C@@H](NC(=O)[C@H](C)NC(=O)CNC(=O)[C@@H](NC=O)C(C)C)C(=O)N[C@@H](C)C(=O)N[C@@H](C(=O)N[C@H](C(=O)N[C@H](CC(C)C)C(=O)N[C@@H](Cc1c[nH]c2ccccc12)C(=O)N[C@@H](C(=O)N[C@@H](Cc1c[nH]c2ccccc12)C(=O)N[C@@H](C(=O)N[C@@H](Cc1c[nH]c2ccccc12)C(=O)N[C@H](CC(C)C)C(=O)N[C@@H](Cc1c[nH]c2ccccc12)C(=O)NCCO)C(C)C)[C@H](C)O)C(C)C)C(C)C [compound 2236] (For-VGA[dL]A[dV]V[dL]W[dT]W[dV]W[dL]W-NHCH2CH2OH) | 100% | + | 1.03 |
| CC(C)C[C@@H](NC(=O)[C@H](C)NC(=O)CNC(=O)[C@@H](NC=O)C(C)C)C(=O)N[C@@H](C)C(=O)N[C@@H](C(=O)N[C@H](C(=O)N[C@@H](C(=O)N[C@@H](Cc1c[nH]c2ccccc12)C(=O)N[C@@H](C(=O)N[C@@H](Cc1c[nH]c2ccccc12)C(=O)N[C@H](CC(C)C)C(=O)N[C@@H](Cc1c[nH]c2ccccc12)C(=O)N[C@H](CC(C)C)C(=O)N[C@@H](Cc1c[nH]c2ccccc12)C(=O)NCCO)C(C)C)[C@H](C)O)C(C)C)C(C)C [compound 2290] (For-VGA[dL]A[dV]V[dT]W[dV]W[dL]W[dL]W-NHCH2CH2OH) | 100% | - | 1.14 |
| CC(C)C[C@@H](NC(=O)[C@H](C)NC(=O)CNC(=O)[C@@H](NC=O)C(C)C)C(=O)N[C@@H](C)C(=O)N[C@H](CC(C)C)C(=O)N[C@H](C(=O)N[C@H](CC(C)C)C(=O)N[C@@H](Cc1c[nH]c2ccccc12)C(=O)N[C@H](CC(C)C)C(=O)N[C@@H](Cc1c[nH]c2ccccc12)C(=O)N[C@@H](C(=O)N[C@@H](Cc1c[nH]c2ccccc12)C(=O)N[C@@H](C(=O)N[C@@H](Cc1c[nH]c2ccccc12)C(=O)NCCO)C(C)C)[C@H](C)O)C(C)C [compound 2346] (For-VGA[dL]A[dL]V[dL]W[dL]W[dT]W[dV]W-NHCH2CH2OH) | 100% | + | 1.03 |
| CNC(=O)C[C@@H](NC(=O)[C@H](Cc1c[nH]c2ccccc12)NC(=O)[C@H](NC(=O)[C@H](Cc1c[nH]c2ccccc12)NC(=O)[C@@H](CC(C)C)NC(=O)[C@H](Cc1c[nH]c2ccccc12)NC(=O)[C@H](NC(=O)[C@@H](NC(=O)[C@@H](CC(C)C)NC(=O)[C@H](C)NC(=O)[C@H](NC(=O)[C@H](C)NC(=O)CNC(=O)[C@@H](NC=O)C(C)C)C(C)C)C(C)C)C(C)C)C(C)C)C(=O)N[C@@H](Cc1c[nH]c2ccccc12)C(=O)NCCO [compound 2425] (For-VGA[dV]A[dL]V[dV]W[dL]W[dV]W[dD](NHMe)W-NHCH2CH2OH) | 100% | - | 1.07 |
| CNC(=O)C[C@@H](NC(=O)[C@H](Cc1c[nH]c2ccccc12)NC(=O)[C@@H](CC(C)C)NC(=O)[C@@H](NC(=O)[C@@H](CC(C)C)NC(=O)[C@H](C)NC(=O)[C@@H](CC(C)C)NC(=O)[C@H](C)NC(=O)CNC(=O)[C@@H](NC=O)C(C)C)C(C)C)C(=O)N[C@@H](Cc1c[nH]c2ccccc12)C(=O)N[C@@H](C(=O)N[C@@H](Cc1c[nH]c2ccccc12)C(=O)N[C@H](CC(C)C)C(=O)N[C@@H](Cc1c[nH]c2ccccc12)C(=O)NCCO)C(C)C [compound 2432] (For-VGA[dL]A[dL]V[dL]W[dD](NHMe)W[dV]W[dL]W-NHCH2CH2OH) | 100% | - | 1.06 |
| CC(C)C[C@@H](NC(=O)[C@H](C)NC(=O)CNC(=O)[C@@H](NC=O)C(C)C)C(=O)N[C@@H](C)C(=O)N[C@@H](C(=O)N[C@H](C(=O)N[C@@H](C(=O)N[C@@H](Cc1c[nH]c2ccccc12)C(=O)N[C@@H](C(=O)N[C@@H](Cc1c[nH]c2ccccc12)C(=O)N[C@@H](C(=O)N[C@@H](Cc1c[nH]c2ccccc12)C(=O)N[C@H](CC(C)C)C(=O)N[C@@H](Cc1c[nH]c2ccccc12)C(=O)NCCO)C(C)C)C(C)C)C(C)C)C(C)C)[C@H](C)O [compound 2475] (For-VGA[dL]A[dT]V[dV]W[dV]W[dV]W[dL]W-NHCH2CH2OH) | 100% | - | 1.13 |
| CC(C)C[C@@H](NC(=O)[C@H](Cc1c[nH]c2ccccc12)NC(=O)[C@@H](CC(C)C)NC(=O)[C@@H](NC(=O)[C@H](NC(=O)[C@H](C)NC(=O)[C@H](NC(=O)[C@H](C)NC(=O)CNC(=O)[C@@H](NC=O)C(C)C)C(C)C)[C@H](C)O)C(C)C)C(=O)N[C@@H](Cc1c[nH]c2ccccc12)C(=O)N[C@H](CC(C)C)C(=O)N[C@@H](Cc1c[nH]c2ccccc12)C(=O)N[C@@H](C(=O)N[C@@H](Cc1c[nH]c2ccccc12)C(=O)NCCO)C(C)C [compound 2495] (For-VGA[dV]A[dT]V[dL]W[dL]W[dL]W[dV]W-NHCH2CH2OH) | 100% | - | 1.22 |
